Source: patent US12528815B2, “5-amino-8-(4-pyridyl)-[1,2,4]triazolo[4,3-c]pyrimidin-3-one compounds for use against cancer” (Nxera Pharma UK Limited, priority 2020, dated 2026)

What was measured:
[1] = molecular target: T1, human adenosine A1 receptor (Homo sapiens, UniProt P30542); assay: Inhibition binding assay, human adenosine A1 receptor membranes, [3H]DPCPX; settings: 1 nM [3H]DPCPX, 25° C., 1 h; IC50 converted to Ki with Cheng-Prusoff; read-out: A1 pKi (converted)
T1 construct: expressed in transfected cells; host or cells: HEK293 cells infected with BacMam (the same paragraph also labels the preparation CHO-hA1)
T1 sequence (P30542 1-326): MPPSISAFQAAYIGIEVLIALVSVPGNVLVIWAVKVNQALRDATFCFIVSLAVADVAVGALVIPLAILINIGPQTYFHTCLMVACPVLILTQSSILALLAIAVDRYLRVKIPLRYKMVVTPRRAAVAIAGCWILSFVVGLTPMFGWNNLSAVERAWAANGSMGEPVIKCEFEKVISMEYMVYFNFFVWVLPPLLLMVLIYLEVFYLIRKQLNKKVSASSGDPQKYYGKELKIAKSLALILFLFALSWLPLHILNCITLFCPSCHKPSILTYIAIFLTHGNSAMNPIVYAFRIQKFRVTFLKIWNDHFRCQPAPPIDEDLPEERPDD
In short: (§1)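 Membranes from BacMam-infected HEK293 cells (0.2 μg A2A, 1.4 μg A1) incubated 1 h at 25° C with test compound and 1 nM [3H]ZM241385 (A2A; 50 mM Tris-HCl pH 7.4) or [3H]DPCPX (A1; plus 100 mM NaCl, 10 mM MgCl2). Nonspecific: 1 μM CGS15943 or DPCPX. Filtration, scintillation; IC50 converted to Ki via Cheng-Prusoff.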

[2] = molecular target: T2, human adenosine A2A receptor (Homo sapiens, UniProt P29274); assay: Inhibition binding assay, human adenosine A2A receptor membranes, [3H]ZM241385; settings: 1 nM [3H]ZM241385, HEK293-hA2A membranes, 25° C., 1 h; IC50 converted to Ki with Cheng-Prusoff; read-out: A2A pKi (converted)
T2 construct: expressed in transfected cells; host or cells: HEK293 cells infected with BacMam
T2 sequence (P29274 whole entry): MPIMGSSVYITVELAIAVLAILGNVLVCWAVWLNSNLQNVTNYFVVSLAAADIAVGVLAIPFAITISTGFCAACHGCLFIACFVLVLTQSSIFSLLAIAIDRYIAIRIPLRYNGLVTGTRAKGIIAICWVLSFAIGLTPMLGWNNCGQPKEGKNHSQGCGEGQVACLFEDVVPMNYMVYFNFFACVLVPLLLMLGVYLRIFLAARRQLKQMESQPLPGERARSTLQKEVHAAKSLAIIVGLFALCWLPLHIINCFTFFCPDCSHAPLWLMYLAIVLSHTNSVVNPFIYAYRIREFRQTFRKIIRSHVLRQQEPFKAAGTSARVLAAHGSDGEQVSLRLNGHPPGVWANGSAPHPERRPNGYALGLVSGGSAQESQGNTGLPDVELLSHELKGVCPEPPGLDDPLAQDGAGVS
In short: as §1

COc1cccc(Cn2nc3c(-c4cc(C)nc(C)c4)c(-c4ccccc4)nc(N)n3c2=O)n1 [Example 1-6, 5-amino-8-(2,6-dimethyl-4-pyridyl)-2-[(6-methoxy-2-pyridyl)methyl]-7-phenyl-[1,2,4]triazolo[4,3-c]pyrimidin-3-one]
Ki [1]: 200 nM | Ki [2]: 0.794 nM

Cc1cc(-c2c(-c3ccc(F)cc3)nc(N)n3c(=O)n(Cc4ccc(F)c(N)n4)nc23)cc(CO)n1 [Example 1-60, 5-amino-2-[(6-amino-5-fluoro-2-pyridyl)methyl]-7-(4-fluorophenyl)-8-[2-(hydroxymethyl)-6-methyl-4-pyridyl]-[1,2,4]triazolo[4,3-c]pyrimidin-3-one]
Ki [1]: 794 nM | Ki [2]: 1.58 nM

Cc1cc(-c2c(-c3ccc(F)cc3)nc(N)n3c(=O)n(Cc4cccnn4)nc23)cc(CO)n1 [Example 1-58, 5-amino-7-(4-fluorophenyl)-8-[2-(hydroxymethyl)-6-methyl-4-pyridyl]-2-(pyridazin-3-ylmethyl)-[1,2,4]triazolo[4,3-c]pyrimidin-3-one]
Ki [1]: 631 nM | Ki [2]: 12.6 nM

Cc1cc(-c2c(-c3ccc(C#N)cc3)nc(N)n3c(=O)n(CCC(F)(F)F)nc23)cc(C)n1 [Example 2-36, 4-[5-amino-8-(2,6-dimethyl-4-pyridyl)-3-oxo-2-(3,3,3-trifluoropropyl)-[1,2,4]triazolo[4,3-c]pyrimidin-7-yl]benzonitrile]
Ki [1]: > 3160 nM | Ki [2]: 20 nM

CCOc1nc(N)n2c(=O)n(CCC(F)(F)F)nc2c1-c1cc(C)nc(C)c1 [Example 3-3, 5-amino-8-(2,6-dimethyl-4-pyridyl)-7-ethoxy-2-(3,3,3-trifluoropropyl)-[1,2,4]triazolo[4,3-c]pyrimidin-3-one]
Ki [1]: > 3160 nM | Ki [2]: 158 nM

Cc1cc(-c2c(N3CCOCC3)nc(N)n3c(=O)n(CCC(F)(F)F)nc23)cc(C)n1 [Example 3-1, 5-amino-8-(2,6-dimethyl-4-pyridyl)-7-morpholino-2-(3,3,3-trifluoropropyl)-[1,2,4]triazolo[4,3-c]pyrimidin-3-one]
Ki [1]: > 3160 nM | Ki [2]: 316 nM

CCC(c1ccc(F)cn1)n1nc2c(-c3cc(C)nc(CO)c3)c(-c3ccccc3)nc(N)n2c1=O (single isomer, unassigned) [1-46 iso-2, 5-amino-2-[1-(5-fluoro-2-pyridyl)propyl]-8-[2-(hydroxymethyl)-6-methyl-4-pyridyl]-7-phenyl-[1,2,4]triazolo[4,3-c]pyrimidin-3-one]
Ki [1]: > 2510 nM | Ki [2]: 100 nM

COC(=O)c1ccc(CCn2nc3c(-c4cc(C)nc(C)c4)c(-c4ccccc4)nc(N)n3c2=O)cc1 [Example 1-84, methyl 4-[2-[5-amino-8-(2,6-dimethyl-4-pyridyl)-3-oxo-7-phenyl-[1,2,4]triazolo[4,3-c]pyrimidin-2-yl]ethyl]benzoate]
Ki [1]: 794 nM | Ki [2]: 31.6 nM

[2H]c1c([2H])c([2H])c(-c2nc(N)n3c(=O)n(CCC(F)(F)F)nc3c2-c2cc(C)nc(C)c2)c([2H])c1[2H] [Example 2-32, 5-amino-8-(2,6-dimethyl-4-pyridyl)-7-(2,3,4,5,6-pentadeuteriophenyl)-2-(3,3,3-trifluoropropyl)-[1,2,4]triazolo[4,3-c]pyrimidin-3-one]
Ki [1]: 398 nM | Ki [2]: 0.501 nM

Cc1cc(-c2c(-c3ccccc3)nc(N)n3c(=O)n(CCN(C)C4CCN(c5ccccc5)CC4)nc23)cc(C)n1 [Example 1-93, 5-amino-8-(2,6-dimethyl-4-pyridyl)-2-[2-[methyl-(1-phenyl-4-piperidyl)amino]ethyl]-7-phenyl-[1,2,4]triazolo[4,3-c]pyrimidin-3-one]
Ki [1]: 631 nM | Ki [2]: 31.6 nM

CCC(c1ccc(F)cn1)n1nc2c(-c3cc(C)nc(C)c3)c(-c3ccccc3)nc(N)n2c1=O (racemic) [Example 1-38, 5-amino-8-(2,6-dimethyl-4-pyridyl)-2-[1-(5-fluoro-2-pyridyl)propyl]-7-phenyl-[1,2,4]triazolo[4,3-c]pyrimidin-3-one]
Ki [1]: 1000 nM | Ki [2]: 100 nM

Cc1ccc(NC2CCN(CCn3nc4c(-c5cc(C)nc(C)c5)c(-c5ccccc5)nc(N)n4c3=O)CC2)nc1 [Example 1-97, 5-amino-8-(2,6-dimethyl-4-pyridyl)-2-[2-[4-[(5-methyl-2-pyridyl)amino]-1-piperidyl]ethyl]-7-phenyl-[1,2,4]triazolo[4,3-c]pyrimidin-3-one]
Ki [1]: > 3980 nM | Ki [2]: 63.1 nM

COc1cc(C)nc(Cn2nc3c(-c4cc(C)nc(C)c4)c(-c4ccccc4)nc(N)n3c2=O)c1 [Example 1-29, 5-amino-8-(2,6-dimethyl-4-pyridyl)-2-[(4-methoxy-6-methyl-2-pyridyl)methyl]-7-phenyl-[1,2,4]triazolo[4,3-c]pyrimidin-3-one]
Ki [1]: 12.6 nM | Ki [2]: 0.501 nM

Cc1cc(-c2c(-c3ccccc3)nc(N)n3c(=O)n(C[C@H]4CN(C(=O)OC(C)(C)C)CCN4C)nc23)cc(C)n1 [Example 2-84, tert-butyl (R)-3-((5-amino-8-(2,6-dimethylpyridin-4-yl)-3-oxo-7-phenyl-[1,2,4]triazolo[4,3-c]pyrimidin-2(3H)-yl)methyl)-4-methylpiperazine-1-carboxylate]
Ki [1]: 316 nM | Ki [2]: 6.31 nM

Cc1cc(-c2c(-c3ccccc3)nc(N)n3c(=O)n(CCC4CCN(C)CC4)nc23)cc(C)n1 [Example 2-97, 5-amino-8-(2,6-dimethyl-4-pyridyl)-2-[2-(1-methyl-4-piperidyl)ethyl]-7-phenyl-[1,2,4]triazolo[4,3-c]pyrimidin-3-one]
Ki [1]: 631 nM | Ki [2]: 6.31 nM

Cc1cc(-c2c(-c3ccccc3)nc(N)n3c(=O)n(CC45CC(F)(C4)C5)nc23)cc(CO)n1 [Example 2-59, 5-amino-2-[(3-fluoro-1-bicyclo[1.1.1]pentanyl)methyl]-8-[2-(hydroxymethyl)-6-methyl-4-pyridyl]-7-phenyl-[1,2,4]triazolo[4,3-c]pyrimidin-3-one]
Ki [1]: 316 nM | Ki [2]: 3.98 nM

Cc1cc(-c2c(-c3ccc(C)o3)nc(N)n3c(=O)n(CCC(F)(F)F)nc23)cc(C)n1 [Example 2-43, 5-amino-8-(2,6-dimethyl-4-pyridyl)-7-(5-methyl-2-furyl)-2-(3,3,3-trifluoropropyl)-[1,2,4]triazolo[4,3-c]pyrimidin-3-one]
Ki [1]: 501 nM | Ki [2]: 2 nM

Cc1cc(-c2c(-c3ccccc3)nc(N)n3c(=O)n(Cc4ccc(F)cn4)nc23)cc(C(F)(F)F)n1 [Example 1-72, 5-amino-2-[(5-fluoro-2-pyridyl)methyl]-8-[2-methyl-6-(trifluoromethyl)-4-pyridyl]-7-phenyl-[1,2,4]triazolo[4,3-c]pyrimidin-3-one]
Ki [1]: 126 nM | Ki [2]: 2.51 nM

Cc1cc(-c2c(-c3ccccc3)nc(N)n3c(=O)n(C(C)c4cccnc4)nc23)cc(C)n1 (stereo not drawn) [Example 1-27, 5-amino-8-(2,6-dimethyl-4-pyridyl)-7-phenyl-2-[1-(3-pyridyl)ethyl]-[1,2,4]triazolo[4,3-c]pyrimidin-3-one]
Ki [1]: 251 nM | Ki [2]: 10 nM

Cc1cc(-c2c(-c3ccccc3)nc(N)n3c(=O)n(CC4CCCOC4)nc23)cc(CO)n1 (single isomer, unassigned) [Example 2-92-iso-1, 5-amino-8-[2-(hydroxymethyl)-6-methyl-4-pyridyl]-7-phenyl-2-(tetrahydropyran-3-ylmethyl)-[1,2,4]triazolo[4,3-c]pyrimidin-3-one]
Ki [1]: 251 nM | Ki [2]: 2.51 nM

Cc1cc(-c2c(-c3ccccc3)nc(N)n3c(=O)n(C(CC4COCCN4)c4ccccc4)nc23)cc(C)n1 (stereo not drawn) [Example 1-103, 5-amino-8-(2,6-dimethyl-4-pyridyl)-2-(2-morpholin-3-yl-1-phenyl-ethyl)-7-phenyl-[1,2,4]triazolo[4,3-c]pyrimidin-3-one]
Ki [1]: 1000 nM | Ki [2]: 15.8 nM

Cc1cc(N2CCC(NCCn3nc4c(-c5cc(C)nc(C)c5)c(-c5ccccc5)nc(N)n4c3=O)CC2)[nH]n1 [Example 1-95, 5-amino-8-(2,6-dimethyl-4-pyridyl)-2-[2-[[1-(3-methyl-1H-pyrazol-5-yl)-4-piperidyl]amino]ethyl]-7-phenyl-[1,2,4]triazolo[4,3-c]pyrimidin-3-one]
Ki [1]: > 2000 nM | Ki [2]: 316 nM

Cc1cc(-c2c(-c3ccc(F)cc3)nc(N)n3c(=O)n(CCC(F)(F)F)nc23)cc(C)[n+]1[O-] [Example 2-58, 5-amino-8-(2,6-dimethyl-1-oxido-pyridin-1-ium-4-yl)-7-(4-fluorophenyl)-2-(3,3,3-trifluoropropyl)-[1,2,4]triazolo[4,3-c]pyrimidin-3-one]
Ki [1]: 1000 nM | Ki [2]: 50.1 nM

Cc1cc(-c2c(-c3ccccc3)nc(N)n3c(=O)n(C[C@H]4CN(C(=O)OC(C)(C)C)CCO4)nc23)cc(C)n1 [Example 2-65, tert-butyl (R)-2-((5-amino-8-(2,6-dimethylpyridin-4-yl)-3-oxo-7-phenyl-[1,2,4]triazolo[4,3-c]pyrimidin-2(3H)-yl)methyl)morpholine-4-carboxylate]
Ki [1]: 501 nM | Ki [2]: 12.6 nM
